Experimental data reported in PMC3787718 (Structure (London, England : 1993), 2013).

Biological target: T1, GLIC (Gloeobacter violaceus ligand-gated ion channel) (Gloeobacter violaceus, UniProt Q7NDN8)
T1 sequence (Q7NDN8 44-359): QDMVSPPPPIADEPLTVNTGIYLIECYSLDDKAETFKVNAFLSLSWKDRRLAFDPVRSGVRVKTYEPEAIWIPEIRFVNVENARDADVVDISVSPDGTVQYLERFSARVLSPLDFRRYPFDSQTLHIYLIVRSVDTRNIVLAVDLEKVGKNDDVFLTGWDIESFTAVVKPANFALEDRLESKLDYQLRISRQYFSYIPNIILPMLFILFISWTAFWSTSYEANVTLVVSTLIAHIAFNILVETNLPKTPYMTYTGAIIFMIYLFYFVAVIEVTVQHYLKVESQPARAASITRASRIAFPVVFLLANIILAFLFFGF
Assay: two-electrode voltage clamp in Xenopus oocytes, inhibition of proton-activated
Assay type: cell-based

FC(F)OC(F)C(F)(F)F (stereo not shown) [DSF, desflurane]
IC50: 1.1 mM
